The source of these data is patent US20040197396A1, “Anhydrous crystal form of valaciclovir hydrochloride” (priority 2001, published 2004).

Data set [1] is described as follows: Water content by Karl Fisher titration. Type of data set: physicochemical. The note with it: Example 11 sample. As to the method:
The water of hydration content is measured by the Karl Fischer method which is well known in the art and is described in the 1990 US Pharmacopoeia at pages 1619-1621, and the European Pharmacopoeia, second edition (1992) part 2, sixteenth fascicule at v. 3.5-6.1. Water content (by Karl Fisher titration): 0.61% w/w

Data set [2] in a line: Thermogravimetric analysis (TGA). Type of data set: physicochemical. Particulars: from 182-310° C.; scan rate 10° C. per minute. Here is the method: Thermogravimetric analysis was carried out on a Perkin-Elmer Pyris-1 TGA system. Scan rate of 10° C. per minute. Sample size 3.757 mg. The TGA trace is provided at FIG. 6.
Data set [3] can be described thus: Stability and hygroscopicity of the crystal form (stated, no method). The note with it: statement in words. Format: physicochemical.
The conditions of data set [4]: relative to acyclovir; statement in words; cited from earlier work.

Structures can show the parent of a compound that is named as a salt.

Turning to `CC(C)[C@H](N)C(=O)OCCOCn1cnc2c(=O)[nH]c(N)nc21` [Form 2 Valaciclovir Hydrochloride, valaciclovir hydrochloride], the “Water content (by Karl Fisher titration)” value in data set [1] stood at 0.61 % w/w. For the same compound, the “Weight loss associated with melting/decomposition” value in data set [2] is 42.97 % w/w. Moreover, in data set [3], the Hygroscopicity result was “essentially non-hygroscopic” and the “Stability of the crystal form” value is on record as “stable”.

On to `CC(C)[C@H](N)C(=O)OCCOCn1cnc2c(=O)[nH]c(N)nc21` [valaciclovir], for which the Bioavailability result in data set [4] is “much improved bioavailability”.
